# Experimental data as given in patent US20230265116A1, “DEGRADATION OF (EGFR) BY CONJUGATION OF EGFR INHIBITORS WITH E3 LIGASE LIGAND AND METHODS OF USE” (BEIGENE, LTD., priority 2020, published 2023).
# Like-named read-outs stand apart in the source and are kept apart here.
# Columns and labels:
# Assay type in all cases: cell-based
# [1] = target: T1, EGFR L858R/T790M/C797S (BaF3-LTC cells) (Homo sapiens, UniProt P00533, C797S/L858R/T790M); assay: EGFR degradation HTRF assay, BaF3-LTC cells; conditions: BaF3-LTC cells; for DC50: EGFR degradation, IC50 (DC50) from curve fit, read-out: DC50(nM) BaF3-LTC; for Dmax: maximum percentage of inhibition (degradation), read-out: Dmax (%) BaF3-LTC
# T1 construct: expressed in transfected cells; host or cells: BaF3
# T1 sequence (P00533 25-1210 T790M/C797S/L858R): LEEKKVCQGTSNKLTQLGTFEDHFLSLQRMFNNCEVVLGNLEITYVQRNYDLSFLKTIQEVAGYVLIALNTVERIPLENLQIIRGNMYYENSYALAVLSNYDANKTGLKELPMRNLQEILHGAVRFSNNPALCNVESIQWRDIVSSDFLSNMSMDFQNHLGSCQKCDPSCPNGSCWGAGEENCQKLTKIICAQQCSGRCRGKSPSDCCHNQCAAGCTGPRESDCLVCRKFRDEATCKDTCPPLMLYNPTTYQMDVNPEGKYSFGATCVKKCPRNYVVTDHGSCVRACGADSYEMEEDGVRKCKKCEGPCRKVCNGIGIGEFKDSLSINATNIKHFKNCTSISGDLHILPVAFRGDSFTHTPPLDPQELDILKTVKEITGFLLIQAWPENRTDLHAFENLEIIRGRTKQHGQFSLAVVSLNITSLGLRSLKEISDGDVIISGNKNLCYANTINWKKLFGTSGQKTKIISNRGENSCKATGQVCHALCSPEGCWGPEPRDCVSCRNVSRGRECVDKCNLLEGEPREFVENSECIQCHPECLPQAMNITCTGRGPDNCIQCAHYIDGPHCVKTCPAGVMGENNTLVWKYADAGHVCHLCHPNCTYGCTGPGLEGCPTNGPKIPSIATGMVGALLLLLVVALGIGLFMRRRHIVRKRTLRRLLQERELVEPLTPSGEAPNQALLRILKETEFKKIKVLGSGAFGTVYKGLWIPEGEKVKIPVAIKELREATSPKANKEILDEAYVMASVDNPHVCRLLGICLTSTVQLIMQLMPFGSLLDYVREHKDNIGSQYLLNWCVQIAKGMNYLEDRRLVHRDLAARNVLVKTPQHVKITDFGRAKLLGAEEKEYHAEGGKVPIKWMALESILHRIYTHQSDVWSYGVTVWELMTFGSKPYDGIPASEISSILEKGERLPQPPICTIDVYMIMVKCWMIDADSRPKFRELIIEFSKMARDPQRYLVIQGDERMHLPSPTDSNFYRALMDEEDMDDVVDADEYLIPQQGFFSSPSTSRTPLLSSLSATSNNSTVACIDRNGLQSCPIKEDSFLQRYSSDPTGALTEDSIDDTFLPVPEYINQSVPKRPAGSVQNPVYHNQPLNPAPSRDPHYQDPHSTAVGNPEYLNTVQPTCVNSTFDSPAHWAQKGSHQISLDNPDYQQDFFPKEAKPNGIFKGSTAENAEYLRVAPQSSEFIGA
# Procedure, shortened: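 Cells treated 16 h at 37 °C, 5% CO2 in medium with 0.2% DMSO; top final concentration 10 uM, 5-fold dilution, 8 doses. Lysates read by HTRF (665/620 nm); degradation % versus DMSO high control, DC50 from four-parameter fit, Dmax as maximal degradation.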
# [2] = system: EGFR Del19/T790M/C797S (H1975-clone #28); assay: EGFR degradation HTRF assay, H1975-clone #28 DTC cells
# Procedure, shortened: (§1)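 The test uses H1975 clonal lines carrying lentiviral mutant EGFR with endogenous copies removed, treated 16h at 37° C., 5% CO2. EGFR left in the lysate is quantified by HTRF, and DC50 is derived from an 8-dose curve starting at 10 uM final.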
# [3] = system: EGFR Del19/C797S (H1975-clone #23); assay: EGFR degradation HTRF assay, H1975-clone #23 DC cells; conditions: for H1975 #23 DC Dmax (%): maximum percentage of degradation
# Procedure, shortened: as §1
# [4] = target: T2, EGFR L858R/C797S (BaF3 LC cells) (Homo sapiens, UniProt P00533, C797S/L858R); assay: EGFR degradation HTRF assay, BaF3 LC cells; conditions: BaF3 LC, 16h treatment; for DC50: read-out: BaF3 LC DC50; for Dmax: maximum percentage of degradation, read-out: BaF3 LC Dmax (%)
# T2 construct: expressed in transfected cells; host or cells: BaF3
# T2 sequence (P00533 25-1210 C797S/L858R): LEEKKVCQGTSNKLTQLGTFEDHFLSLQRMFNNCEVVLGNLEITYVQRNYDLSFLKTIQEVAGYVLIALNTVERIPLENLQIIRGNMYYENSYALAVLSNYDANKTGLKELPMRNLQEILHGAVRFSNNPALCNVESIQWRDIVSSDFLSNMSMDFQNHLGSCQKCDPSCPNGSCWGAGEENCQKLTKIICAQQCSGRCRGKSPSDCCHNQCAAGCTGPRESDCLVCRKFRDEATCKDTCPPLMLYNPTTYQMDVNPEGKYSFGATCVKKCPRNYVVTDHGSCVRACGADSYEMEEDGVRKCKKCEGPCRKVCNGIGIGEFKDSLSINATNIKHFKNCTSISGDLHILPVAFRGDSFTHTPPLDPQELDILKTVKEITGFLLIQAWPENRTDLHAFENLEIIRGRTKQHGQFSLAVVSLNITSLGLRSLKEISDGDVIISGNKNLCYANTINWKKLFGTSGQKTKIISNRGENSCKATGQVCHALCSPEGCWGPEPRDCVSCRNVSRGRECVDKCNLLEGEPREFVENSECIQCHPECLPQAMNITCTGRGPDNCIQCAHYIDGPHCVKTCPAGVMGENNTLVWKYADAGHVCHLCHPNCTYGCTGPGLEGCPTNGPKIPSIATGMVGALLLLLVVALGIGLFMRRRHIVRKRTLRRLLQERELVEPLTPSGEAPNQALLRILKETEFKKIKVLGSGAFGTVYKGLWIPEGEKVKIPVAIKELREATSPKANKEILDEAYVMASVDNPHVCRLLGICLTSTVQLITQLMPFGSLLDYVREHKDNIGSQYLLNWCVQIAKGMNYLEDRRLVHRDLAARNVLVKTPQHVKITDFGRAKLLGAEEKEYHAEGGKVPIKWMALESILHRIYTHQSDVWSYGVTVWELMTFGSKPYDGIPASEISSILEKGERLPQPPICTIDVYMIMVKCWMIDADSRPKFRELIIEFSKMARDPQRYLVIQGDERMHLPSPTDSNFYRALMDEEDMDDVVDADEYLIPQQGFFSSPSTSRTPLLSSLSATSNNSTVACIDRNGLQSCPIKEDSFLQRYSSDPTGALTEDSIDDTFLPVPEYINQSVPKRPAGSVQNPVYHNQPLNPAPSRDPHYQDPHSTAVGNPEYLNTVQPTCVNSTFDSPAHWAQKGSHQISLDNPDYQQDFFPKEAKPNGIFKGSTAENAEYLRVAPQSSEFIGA
# [5] = H1975 # 28 DTC cells; EGFR degradation, IC50 (DC50) from curve fit; read-out: DC50(nM) H1975 # 28 DTC
# [6] = H1975 # 28 DTC cells; maximum percentage of inhibition (degradation)
# [7] = H1975 #23 DC, 16h treatment, read-out: H1975 #23 DC DC50
Structure (SMILES),DC50 [1] [nM],"DC50 [2, 5] [nM]","Dmax (%) H1975 # 28 DTC [2, 6] [%]",H1975 #23 DC Dmax (%) ([3]; 16h treatment),"DC50 [3, 7] [nM]",DC50 [4] [nM],Dmax [1] [%],Dmax [4] [%],"DC50 ([2]; read-out: DC50(nM) H1975 # 28 DTC; H1975 # 28 DTC cells; EGFR degradation, IC50 (DC50) from curve fit) [nM]","DC50 ([3]; read-out: H1975 #23 DC DC50, 16h treatment) [nM]"
"CCOc1cc(N2CCC(N3CCN(CCc4cc(F)c([C@H]5CCC(=O)NC5=O)c(F)c4)CC3)CC2)c(CC)cc1Nc1ncc(Br)c(Nc2cc(F)c3nc(CC)ccc3c2P(C)(C)=O)n1 [Example 486, (R)-3-(4-(2-(4-(1-(4-((5-bromo-4-((5-(dimethylphosphoryl)-2-ethyl-8-fluoroquinolin-6-yl)amino)pyrimidin-2-yl)amino)-5-ethoxy-2-ethylphenyl)piperidin-4-yl)piperazin-1-yl)ethyl)-2,6-difluorophenyl)piperidine-2,6-dione]",5.83,0.802,85.73,80.02,4.73,16.6,–,–,–,–
"CCc1cc(Nc2ncc(Br)c(Nc3ccc4nc(C)ccc4c3P(C)(C)=O)n2)c(OC)cc1N1CCC(N2CCN(C(=O)[C@H]3CN(c4cc(F)c([C@H]5CCC(=O)NC5=O)c(F)c4)CC3(C)C)CC2)CC1 [Example 487, (R)-3-(4-((R)-4-(4-(1-(4-((5-bromo-4-((5-(dimethylphosphoryl)-2-methylquinolin-6-yl)amino)pyrimidin-2-yl)amino)-2-ethyl-5-methoxyphenyl)piperidin-4-yl)piperazine-1-carbonyl)-3,3-dimethylpyrrolidin-1-yl)-2,6-difluorophenyl)piperidine-2,6-dione]",5.25,2.22,85.45,74.41,4.02,10.1,–,–,–,–
"CCc1cc(Nc2ncc(Br)c(Nc3ccc4nc(C)c(F)cc4c3P(C)(C)=O)n2)c(OC)cc1N1CCC(N2CCN(C(=O)[C@@H]3CCN(c4cc(F)c([C@H]5CCC(=O)NC5=O)c(F)c4)C3)CC2)CC1 [Example 488, (R)-3-(4-((R)-3-(4-(1-(4-((5-bromo-4-((5-(dimethylphosphoryl)-3-fluoro-2-methylquinolin-6-yl)amino)pyrimidin-2-yl)amino)-2-ethyl-5-methoxyphenyl)piperidin-4-yl)piperazine-1-carbonyl)pyrrolidin-1-yl)-2,6-difluorophenyl)piperidine-2,6-dione]",3.52,0.97,84.91,67.73,2.23,17.9,–,–,–,–
"CCc1cc(Nc2ncc(Br)c(Nc3ccc4nc(C)ccc4c3P(C)(C)=O)n2)c(OC)cc1N1CCC(N2CCN(CCc3ccc4c(c3)oc(=O)n4C3CCC(=O)NC3=O)CC2)CC1 (stereo not drawn) [Example 490, 3-(6-(2-(4-(1-(4-((5-bromo-4-((5-(dimethylphosphoryl)-2-methylquinolin-6-yl)amino)pyrimidin-2-yl)amino)-2-ethyl-5-methoxyphenyl)piperidin-4-yl)piperazin-1-yl)ethyl)-2-oxobenzo[d]oxazol-3(2H)-yl)piperidine-2,6-dione]",1.3,0.2,80.5,64.67,0.974,2.41,92.8,95.7,–,–
"CCc1ccc2c(P(C)(C)=O)c(Nc3nc(Nc4cc(CC)c(N5CCC(N6CCN(CCc7ccc8c(c7)oc(=O)n8C7CCC(=O)NC7=O)CC6)CC5)cc4OC)ncc3Br)ccc2n1 (stereo not drawn) [Example 491, 3-(6-(2-(4-(1-(4-((5-bromo-4-((5-(dimethylphosphoryl)-2-ethylquinolin-6-yl)amino)pyrimidin-2-yl)amino)-2-ethyl-5-methoxyphenyl)piperidin-4-yl)piperazin-1-yl)ethyl)-2-oxobenzo[d]oxazol-3(2H)-yl)piperidine-2,6-dione]",2.72,0.647,78.48,58.85,0.85,2.34,–,–,–,–
"CCOc1cc(N2CCC(N3CCN(CCc4cc5oc(=O)n(C6CCC(=O)NC6=O)c5cc4F)CC3)CC2)c(CC)cc1Nc1ncc(Br)c(Nc2ccc3nc(CC)ccc3c2P(C)(C)=O)n1 (stereo not drawn) [Example 492, 3-(6-(2-(4-(1-(4-((5-bromo-4-((5-(dimethylphosphoryl)-2-ethylquinolin-6-yl)amino)pyrimidin-2-yl)amino)-5-ethoxy-2-ethylphenyl)piperidin-4-yl)piperazin-1-yl)ethyl)-5-fluoro-2-oxobenzo[d]oxazol-3(2H)-yl)piperidine-2,6-dione]",3.39,0.605,70.88,51.44,3.07,4.28,95.5,79.5,–,–
"CCOc1cc(N2CCC(N3CCN(CCc4cccc5c4oc(=O)n5C4CCC(=O)NC4=O)CC3)CC2)c(CC)cc1Nc1ncc(Br)c(Nc2cc(F)c3nc(CC)ccc3c2P(C)(C)=O)n1 (stereo not drawn) [Example 493, 3-(7-(2-(4-(1-(4-((5-bromo-4-((5-(dimethylphosphoryl)-2-ethyl-8-fluoroquinolin-6-yl)amino)pyrimidin-2-yl)amino)-5-ethoxy-2-ethylphenyl)piperidin-4-yl)piperazin-1-yl)ethyl)-2-oxobenzo[d]oxazol-3 (2H)-yl)piperidine-2,6-dione]",2.71,0.588,70.43,63.11,11.2,24.3,–,–,–,–
"CCOc1cc(N2CCC(N3CCN(CCCc4cc(F)cc5c4oc(=O)n5C4CCC(=O)NC4=O)CC3)CC2)c(CC)cc1Nc1ncc(Br)c(Nc2ccc3nc(CC)ccc3c2P(C)(C)=O)n1 (stereo not drawn) [Example 496, 3-(7-(3-(4-(1-(4-((5-bromo-4-((5-(dimethylphosphoryl)-2-ethylquinolin-6-yl)amino)pyrimidin-2-yl)amino)-5-ethoxy-2-ethylphenyl)piperidin-4-yl)piperazin-1-yl)propyl)-5-fluoro-2-oxobenzo[d]oxazol-3(2H)-yl)piperidine-2,6-dione]",2.3,0.92,75.32,95.59,0.787,2.23,85.5,91.3,–,–
CCOc1cc(N2CCC(N3CCN(CC4CN(c5cccc6c5oc(=O)n6C5CCC(=O)NC5=O)C4)CC3)CC2)c(CC)cc1Nc1ncc(Br)c(Nc2ccc3nc(CC)ccc3c2P(C)(C)=O)n1 (stereo not drawn) [Example 497],6.27,1.01,80.94,74.87,3.32,5.19,86.6,93.3,–,–
"CCOc1cc(N2CCC(N3CCN(CCc4cc5oc(=O)n(C6CCC(=O)NC6=O)c5cc4F)CC3)CC2)c(CC)cc1Nc1ncc(Br)c(Nc2cc(F)c3nc(CC)ccc3c2P(C)(C)=O)n1 (stereo not drawn) [Example 498, 3-(6-(2-(4-(1-(4-((5-bromo-4-((5-(dimethylphosphoryl)-2-ethyl-8-fluoroquinolin-6-yl)amino)pyrimidin-2-yl)amino)-5-ethoxy-2-ethylphenyl)piperidin-4-yl)piperazin-1-yl)ethyl)-5-fluoro-2-oxobenzo[d]oxazol-3(2H)-yl)piperidine-2,6-dione]",7.62,2.1,86.84,66.76,0.377,0.718,91.4,92.9,–,–
"CCc1ncc2c(P(C)(C)=O)c(Nc3nc(Nc4cc(CC)c(N5CCC(N6CCN(CCc7ccc8c(c7)oc(=O)n8C7CCC(=O)NC7=O)CC6)CC5)cc4OC)ncc3Br)ccc2n1 (stereo not drawn) [Example 499, 3-(6-(2-(4-(1-(4-((5-bromo-4-((5-(dimethylphosphoryl)-2-ethylquinazolin-6-yl)amino)pyrimidin-2-yl)amino)-2-ethyl-5-methoxyphenyl)piperidin-4-yl)piperazin-1-yl)ethyl)-2-oxobenzo[d]oxazol-3(2H)-yl)piperidine-2,6-dione]",1.95,–,77.41,61.96,–,0.955,–,–,0.185,0.646
"CCOc1cc(N2CCC(N3CCN(CCc4ccc5c(c4)oc(=O)n5C4CCC(=O)NC4=O)CC3)CC2)c(CC)cc1Nc1ncc(Br)c(Nc2cc(F)c3nc(CC)ccc3c2P(C)(C)=O)n1 (stereo not drawn) [Example 500, 3-(6-(2-(4-(1-(4-((5-bromo-4-((5-(dimethylphosphoryl)-2-ethyl-8-fluoroquinolin-6-yl)amino)pyrimidin-2-yl)amino)-5-ethoxy-2-ethylphenyl)piperidin-4-yl)piperazin-1-yl)ethyl)-2-oxobenzo[d]oxazol-3(2H)-yl)piperidine-2,6-dione]",2.42,0.413,71.9,55.74,1.11,1.11,84.8,92,–,–
